One test concerns 293/KLB cells. The test is described as follows: Agonist pERK AlphaLISA assay in 293/KLB cells. The format is cell-based, human. Particulars: 10 min at 37° C, n = 3. As for the experimental part:
(§1) 293T HEK cells expressing KLB (or KL) or Hep3B cells were plated to 5–6 x 10^4 cells/well density in 96-well cell culture plate coated with poly-D-Lysine (Corning). The cells were serum starved for four hours in 0.1% BSA fraction V (ThermoFisher) containing media prior to treatment with protein and/or an antagonist peptide at the mentioned concentrations for 10 min at 37° C. For the antagonist assays, a chosen fixed dose within the range of 0.8–30 nM (depending on the cell type) of FGF21 or FGF19 stimulant was added to all the wells. BaF3 cells expressing human KLB/FGFR1c or human KLB/FGFR4-1c chimera were seeded at 5 × 10^5 cells/well density in 96-well cell culture plate and serum-starved overnight. FGF21/19 analogs were diluted in 0.02% Tween-20 containing RPMI1640 medium and the cells were treated for 15 min at 37° C. Following the respective cell treatments, the cells were lysed (with lysis buffer provided in the kit) for 10 min at room temperature on a shaker and the lysate was mixed with reaction mixture (consisting of reaction buffer, activation buffer, acceptor and donor beads provided in the kit). Phosphorylated ERK1/2 (pERK) levels were subsequently recorded by EnSpire Alpha or Envision Multilabel plate reader (Perkin Elmer). The cell assays corresponding to 293/KLB or Hep3B cells were carried out with AlphaLISA SureFire Ultra pERK1/2 (Thr 202/Tyr204) kit (Perkin Elmer), and BaF3 cells were done using AlphaScreen pERK1/2 (Thr202/Tyr204) kit (Perkin Elmer).
All cellular phosphorylation data were analyzed using 3-parameter non-linear regression curve in GraphPad Prism 7. Graphs are represented as relative maximal (100%) response of the positive control. All other test analog signals were adjusted accordingly as % values. […] Each peptide and protein analog was tested in triplicates in three independent experiments (n = 3), and normalized graphs plotted are expressed as mean ± SD unless otherwise noted.

The test system of the next test is Hep3B cells. Description: Agonist pERK AlphaLISA assay in Hep3B cells. The conditions noted are these: 10 min at 37° C, n = 3. The format is cell-based, human. As for the experimental part:
as §1, with “Following the respective cell treatments, the cells were lysed (with lysis buffer provided in the kit) for 10 min at room temperature on a shaker and the lysate was mixed with reaction mixture (consisting of reaction buffer, activation buffer, acceptor and donor beads provided in the kit).” left out, “The cell assays corresponding to 293/KLB or Hep3B cells were carried out with AlphaLISA SureFire Ultra pERK1/2 (Thr 202/Tyr204) kit (Perkin Elmer), and BaF3 cells were done using AlphaScreen pERK1/2 (Thr202/Tyr204) kit (Perkin Elmer).” left out
All cellular phosphorylation data were analyzed using 3-parameter non-linear regression curve in GraphPad Prism 7. […] Each peptide and protein analog was tested in triplicates in three independent experiments (n = 3), and normalized graphs plotted are expressed as mean ± SD unless otherwise noted.

The test system of test [1] is human FGFR4-1c chimera/KLB. Description: Agonist pERK AlphaScreen assay in BaF3 cells, FGFR4-1c chimera/KLB. In kind it is cell-based. Particulars: BaF3 cells co-expressing KLB and FGFR4-1c chimera; 15 min at 37° C; n = 3. The text has this: (§2) For generating receptor specific BaF3 cell line, human FGFR1c cDNA was cloned into pMXs-IRES-Puro vector (Cell Biolabs) to generate the expression plasmid pMX-FGFR1c-IRES-Puro. Human FGFR4 sequence was re-engineered to enhance signaling by constructing chimeric cDNA encoding the extracellular region of FGFR4 fused to the intracellular region and tyrosine kinase domain of FGFR1c, and the chimeric sequence was cloned into pMX-IRES-Puro vector to generate the expression plasmid pMX-chimeric FGFR4-1c-IRES-Puro. Human KLB cDNA was cloned into pMXs-IRES-Neo vector (Cell Biolabs) to generate expression plasmid pMX-KLB-IRES-Neo. BaF3 cells were transfected with pMX-FGFR1c-IRES-Puro and pMX- FGFR4-1c chimera-IRES-Puro expression plasmids respectively by electroporation (Xcell machine, Bio-Rad, 950 μF, 370V). Cells were selected with media containing 1 μg/ml Puromycin for 10–12 days. […]
(§3) 293T HEK cells expressing KLB (or KL) or Hep3B cells were plated to 5–6 x 10^4 cells/well density in 96-well cell culture plate coated with poly-D-Lysine (Corning). […] Phosphorylated ERK1/2 (pERK) levels were subsequently recorded by EnSpire Alpha or Envision Multilabel plate reader (Perkin Elmer). […]
(§4) All cellular phosphorylation data were analyzed using 3-parameter non-linear regression curve in GraphPad Prism 7. […]
(Bead proximity is the source of the signal in Alpha formats.)

For another test, the system named is human FGFR1/KLB. The test is described as follows: Agonist pERK AlphaScreen assay in BaF3 cells, FGFR1/KLB. The format is cell-based. Particulars: BaF3 cells co-expressing KLB and FGFR1; 15 min at 37° C; n = 3.
Source text: as §2, §3, §4

Data on one substance can be found in paper PMC6026317, “Molecular elements in FGF19 and FGF21 defining KLB/FGFR activity and specificity” (Molecular Metabolism, 2018).

As for “FGF19,A^194: FGF19 analog with single C-terminal lysine substitution to alanine”, the “pERK agonist activity, in words” value is “nearly tenfold more active than FGF19” with 293/KLB cells, “comparable” in the test with Hep3B cells, “no change in bioactivity” in test [1] and “enhanced signaling at the FGFR1/KLB complex by approximately ten-fold” with human FGFR1/KLB.
